These are literature values, as cited in patent publication US9090606B2, “Compounds” (CHIESI FARMACEUTICI S.p.A., priority 2012, dated 2015).

Data set [1] has as its system smoking model of COPD in mice.
The test system of data set [2] is COPD patients.
Setting [3] is: patients with severe disease, frequent exacerbations and mucus hypersecretion.

On to `O=C(Nc1c(Cl)cncc1Cl)c1ccc(OC(F)F)c(OCC2CC2)c1` [roflumilast], for which, in data set [1], the “effect on lung inflammation and emphysema” value is “inhibits lung inflammation and emphysema”. Further, the “reduction of the numbers of neutrophils in sputum” value in data set [2] (COPD patients, oral, given over 4 weeks) is given as 36%. For the same compound, in data set [2] (setting [3]), the “improvement of FEV 1” value was “approximately 50 mL” and the reduction of exacerbation result is “about 15%”.
